This is an account of results in ChEMBL document CHEMBL5634141 (Eur J Med Chem, 2023).

Data set [1] is described as follows: Volume of distribution at steady state in ICR mouse at 2 mg/kg, iv measured after 24 hrs by LC-MS/MS analysis. As to conditions: in vivo. It counts as ADME, organism-based.
Another data set has as its system ASPC1. The data set is described as follows: Antiproliferative activity against human ASPC1 cells expressing KRAS G12D mutant assessed as inhibition of cell growth incubated for 72 hrs by CCK-8 assay. As to conditions: ASPC1, 72 h. It counts as functional, cell-based. (Tetrazolium assays rely on reduction of a dye to a coloured formazan, in cell work by metabolically active cells.)

Data set [2] in a line: AUC (0 to t) in ICR mouse at 30 mg/kg, ip measured after 24 hrs by LC-MS/MS analysis. Type of data set: ADME, organism-based. As to conditions: in vivo.
The nature of data set [3]: Cmax in ICR mouse at 2 mg/kg, iv measured after 24 hrs by LC-MS/MS analysis. Type of data set: ADME, organism-based. As to conditions: in vivo.
Data set [4] is described as follows: Clearance in ICR mouse at 2 mg/kg, iv measured after 24 hrs by LC-MS/MS analysis. Type of data set: ADME, organism-based. As to conditions: in vivo.
Data set [5] concerns MIA PaCa-2. Kind of data set: Inhibition of RAF-MEK-ERK pathway in human MIA PaCa-2 cells assessed as decrease in ERK phosphorylation at 100 nM incubated for 6 to 8 days by Western blot analysis. Type of data set: cell-based. As to conditions: time 6-8 day. On the technique in general: Immunoblotting shows a protein as a band on a membrane.
Data set [6] is described as follows: Inhibition of PI3K-AKT-mTOR pathway in human NCI-H358 cells assessed as decrease in […] phosphorylation at 100 nM incubated for 6 to 8 days by Western blot analysis. Type of data set: cell-based. As to conditions: time 6-8 day.
Data set [7] can be described thus: Cytotoxicity against HEK293T cells assessed as inhibition of cell growth incubated for 72 hrs by CCK-8 assay. Type of data set: toxicity, cell-based, HEK-293T. As to conditions: human.
The nature of data set [8]: Inhibition of PI3K-AKT-mTOR pathway in human MIA PaCa-2 cells assessed as decrease in […] phosphorylation at 100 nM incubated for 6 to 8 days by Western blot analysis. It counts as cell-based. As to conditions: time 6-8 day.
Data set [9] is described as follows: AUC (0 to infinity) in ICR mouse at 30 mg/kg, ip measured after 24 hrs by LC-MS/MS analysis. It counts as ADME, organism-based. As to conditions: in vivo.
Data set [10] has as its system MIA PaCa-2. The data set is described as follows: Antiproliferative activity against human MIA PaCa-2 cells expressing KRAS G12C mutant assessed as inhibition of cell growth incubated for 72 hrs by CCK-8 assay. Type of data set: functional, cell-based. As to conditions: MIA PaCa-2, 72 h.
Data set [11] relates to NCI-H358. The data set is described as follows: Antiproliferative activity against human NCI-H358 cells expressing KRAS G12C mutant assessed as inhibition of cell growth incubated for 72 hrs by CCK-8 assay. It counts as functional, cell-based. As to conditions: NCI-H358, 72 h.
Data set [12] in a line: Half life in ICR mouse at 30 mg/kg, ip measured after 24 hrs by LC-MS/MS analysis. Type of data set: ADME, organism-based. As to conditions: in vivo.
Data set [13] is described as follows: AUC (0 to infinity) in ICR mouse at 2 mg/kg, iv measured after 24 hrs by LC-MS/MS analysis. Type of data set: ADME, organism-based. As to conditions: in vivo.
Data set [14] in a line: Half life in ICR mouse at 2 mg/kg, iv measured after 24 hrs by LC-MS/MS analysis. It counts as ADME, organism-based. As to conditions: in vivo.
Data set [15] can be described thus: AUC (0 to t) in ICR mouse at 2 mg/kg, iv measured after 24 hrs by LC-MS/MS analysis. Type of data set: ADME, organism-based. As to conditions: in vivo.
The subject of data set [16] is NCI-H358. Kind of data set: Inhibition of RAF-MEK-ERK pathway in human NCI-H358 cells assessed as decrease in ERK phosphorylation at 100 nM incubated for 6 to 8 days by Western blot analysis. It counts as cell-based. As to conditions: time 6-8 day.
Another data set deals with HepG2. The data set is described as follows: Antiproliferative activity against human HepG2 cells expressing KRAS assessed as inhibition of cell growth incubated for 72 hrs by CCK-8 assay. It counts as functional, cell-based. As to conditions: HepG2, 72 h.
Data set [17] can be described thus: Cmax in ICR mouse at 30 mg/kg, ip measured after 24 hrs by LC-MS/MS analysis. As to conditions: in vivo. It counts as ADME, organism-based.
Data set [18] can be described thus: Tmax in ICR mouse at 30 mg/kg, ip measured after 24 hrs by LC-MS/MS analysis. Type of data set: ADME, organism-based. As to conditions: in vivo.
A further data set has as its system Calu-1. The data set is described as follows: Antiproliferative activity against human Calu-1 cells expressing KRAS G12C mutant assessed as relative cell viability at 200 nM incubated for 72 hrs by CCK-8 assay. As to conditions: read-out: Activity. Type of data set: functional.
Data set [19] has as its system NCI-H358. Kind of data set: Antiproliferative activity against human NCI-H358 cells expressing KRAS G12C mutant assessed as relative cell viability at 200 nM incubated for 72 hrs by CCK-8 assay. As to conditions: read-out: Activity. Type of data set: functional.
The test system of a further data set is NCI-H23. The data set is described as follows: Antiproliferative activity against human NCI-H23 cells expressing KRAS G12C mutant assessed as relative cell viability at 200 nM incubated for 72 hrs by CCK-8 assay. Type of data set: functional. As to conditions: read-out: Activity.
A further data set relates to SW837. The data set is described as follows: Antiproliferative activity against human SW837 cells expressing KRAS G12C mutant assessed as relative cell viability at 200 nM incubated for 72 hrs by CCK-8 assay. It counts as functional. As to conditions: read-out: Activity.
Data set [20] has as its system MIA PaCa-2. The data set is described as follows: Antiproliferative activity against human MIA PaCa-2 cells expressing KRAS G12C mutant assessed as relative cell viability at 200 nM incubated for 72 hrs by CCK-8 assay. Type of data set: functional. As to conditions: read-out: Activity.

Structures are written as SMILES. Active and inactive are the calls of the source. The calls are words filed in the database; no cut-off is given here. Some results are limits rather than exact numbers.

A word on the Vdss: it is the apparent volume that relates the amount in the body to the concentration in plasma or blood. In general, IC50 refers to the midpoint of a concentration-inhibition curve. As usually defined, the AUC(0-t) is exposure summed from dosing to a finite time, without extrapolation to infinity. Higher therefore signals more exposure. A word on the Cmax: it is the maximum level reached in the sampled fluid or tissue. The clearance is the rate of elimination divided by the concentration. A low value points to inefficient removal. In general, AUC(0-inf) refers to total exposure, with the tail of the curve extrapolated. A lower AUC(0-inf) goes with low exposure. For orientation: half-life means how long it takes for the measured level to halve. A high value points to slow loss. Usually AUC stands for the area under the concentration-time curve, a measure of exposure. Broadly, the Tmax is the time from dosing to the highest level.

In data set [1], `C=CC(=O)N1CCN(c2nc(=O)n(-c3c(C)ccnc3C(C)C)c3nc(-c4c(O)cccc4F)c(F)cc23)[C@@H](C)C1` [SOTORASIB] had a Vdss of 1.62 L/kg. Besides, the IC50 in the data set on ASPC1 was greater than 10 µM; in the data set on MIA PaCa-2 [10], 0.018 µM; with NCI-H358 [11], 0.012 µM; with HepG2 it was greater than 10 µM. Also, the AUC(0-t) at 24 h in data set [2] is 9440 ng·h/mL; in data set [15] it was 311 ng·h/mL. For the same molecule, the Cmax in data set [3] amounted to 863 ng/mL; in [17], 9840 ng/mL. Moreover, in data set [4], the clearance was 110 mL/min/kg. For the same molecule, the inhibition result (in the data set on MIA PaCa-2 [5]; in data set [6]; in [8]; in the data set on NCI-H358 [16]) was “inactive” throughout. Besides, the IC50 at 72 h in data set [7] is greater than 10 µM. This molecule came in with an AUC(0-inf) in data set [9] of 9450 ng·h/mL. The molecule also had a half-life in data set [12] of 238 min. This molecule showed an exposure (AUC) in data set [13] of 312 ng·h/mL. The same molecule came in with a t1/2 in [14] of 15.1 min. In addition, the time to peak (Tmax) in data set [18] came to 15 min.
For the molecule `C[C@@H](Oc1cc(-c2cnn(C3CCNCC3)c2)cnc1N)c1c(Cl)ccc(F)c1Cl` [CRIZOTINIB], the viability at 0.2 µM in the data set with Calu-1 worked out at 0.87%; in the data set on NCI-H358 [19], 0.82%; in the data set with NCI-H23, 0.81%; in the data set on SW837 it was 0.77%; in the data set on MIA PaCa-2 [20], 0.79%.
